Assay results reported in patent US12570615B2, “Quinazolinone derivatives” (Hoffmann-La Roche Inc., priority 2021, dated 2026).

What was measured:
[1] = tested on: P-ERK (ERK phospho-T202/Y204) in A375 cells expressing V600E mutated BRAF; assay: HTRF assay for P-ERK determination in A375 cells (BRAF inhibition); assay type: cell-based; settings: Homo sapiens, A-375, P-ERK level, drug incubation 1 hour, DMSO = 100%, 10 μM Dabrafenib = 0%
Text: (§1) A375 is a cellular cancer model expressing V600E mutated BRAF and HCT116 a cellular cancer model expressing WT BRAF. First generation BRAF inhibitors such as e.g. dabrafenib induce a paradox effect on tumour cells in that they inhibit the growth of V600E mutated BRAF cells (such as e.g. A375), while they activate growth in WT BRAF cells (such as e.g. HCT 116). ERK 1,2 phosphorylation (terminal member of the phosphorylation cascade of the MAPK pathway) is hereafter reported as main readout for the activation status of the MAPK pathway. DMEM no-phenol red medium supplemented with L-glutamine was purchased from (Thermo Fisher Scientific). Fetal bovine serum (FBS) was purchased from VWR. Advanced ERK phospho-T202/Y204 kit—10,000 tests was purchased from Cisbio cat #64AERPEH. A375 (catalog #CRL-1619) and HCT116 (catalog #CCL-247) cells were originally obtained from American type Culture Collection (ATCC) and banked by the Roche repository. 384-Well microplates utilized were purchased from Greiner Bio-One, 384-well, (With Lid, HiBase, Low volume cat 784-080).
(§2) Prior to the assay, A375 and HCT116 cell lines are maintained in DMEM no-phenol red medium supplemented with 10% fetal bovine serum (FBS). Following compound treatment, P-ERK levels are determined by measuring FRET fluorescence signal induced by selective binding of 2 antibodies provided in the mentioned kit (Cisbio cat #64AERPEH) on ERK protein when phosphorylated at Thr202/Tyr204. Briefly, 8000 cells/well in 12 μl media/well are plated in the 384-well plate and left overnight in the incubator (at 37° C. with 5% CO2-humidified atmosphere), the following day the plate is treated in duplicate with test compounds, dabrafenib and PLX8394 (the latter two as controls) at the following final drug concentrations: 10 μM-3 μM 1 μM-0.3 μM-0.1 μM-0.03 μM-0, 01 μM-0.003 μM-0.001 μM, all wells are subjected to DMSO normalization and drug incubation occurs for 1 hour. Then, […] of a 4× lysis buffer supplied with the kit are added to the wells, the plate is then centrifuged for 30 second (3000 rpm) and incubated on a plate shaker for 1 h at rt.
(§3) At the end of the incubation 4 μL/well of advanced P-ERK antibody solution (prepared according to manufacturer's instruction) followed by 4 μL/well of criptate P-ERK antibody solution (prepared according to manufacturer's instruction) (Cisbio cat #64AERPEH) are added to test wells.
(§4) In order to allow proper data normalization control wells non drug treated reported in the following table are always included in each plate (according to manufacturer's instruction):
(§5) The plate is then centrifuged at 3000 rpm for 30 second, sealed to prevent evaporation and incubated overnight in the dark at room temperature.
(§6) The plate is then analyzed and fluorescence emission value collected through a Pherastast FSX (BMG Labtech) apparatus at […].
(§7) The obtained fluorescence values are processed according to the formula Ratio=[…]*10000 then the average of the ratio on the blank is subtracted to all values.
Data are normalized in the case of A375 cells (BRAF inhibition) considering the average of the ratio (blank subtracted) derived by DMSO only treated cells as 100% and by considering the average of the ratio (blank subtracted) derived by 10 μM Dabrafenib treated cells as 0%. Mean of the normalized points are fitted with sigmoidal curve and IC50 determined.

[2] = tested on: P-ERK (ERK phospho-T202/Y204) in HCT116 cells expressing WT BRAF; assay: HTRF assay for P-ERK determination in HCT116 cells (BRAF activation); assay type: cell-based; settings: Homo sapiens, HCT-116, drug incubation 1 hour, concentration giving 50% of the maximum activation achieved by Dabrafenib
Text: as §1, §2, §3, §4, §5, §6, §7
Data are normalized in the case of HCT116 cells (BRAF activation) considering the average of the ratio (blank subtracted) derived by DMSO only treated cells as 0% and by considering the average of the ratio (blank subtracted) derived by Dabrafenib treated cells at the concentration which provides the highest signal as 100%. Individual points are fitted with either sigmoidal or bell shape curves. The EC50 is the concentration at which activation equal to 50% of the maximum activation achieved by Dabrafenib is obtained.

BRAF (wt) = BRAF (wt) (Homo sapiens, UniProt P15056); assay: KD BRAF (wt) (Table 1); assay type: binding
Chain of BRAF (wt) (P15056 whole entry): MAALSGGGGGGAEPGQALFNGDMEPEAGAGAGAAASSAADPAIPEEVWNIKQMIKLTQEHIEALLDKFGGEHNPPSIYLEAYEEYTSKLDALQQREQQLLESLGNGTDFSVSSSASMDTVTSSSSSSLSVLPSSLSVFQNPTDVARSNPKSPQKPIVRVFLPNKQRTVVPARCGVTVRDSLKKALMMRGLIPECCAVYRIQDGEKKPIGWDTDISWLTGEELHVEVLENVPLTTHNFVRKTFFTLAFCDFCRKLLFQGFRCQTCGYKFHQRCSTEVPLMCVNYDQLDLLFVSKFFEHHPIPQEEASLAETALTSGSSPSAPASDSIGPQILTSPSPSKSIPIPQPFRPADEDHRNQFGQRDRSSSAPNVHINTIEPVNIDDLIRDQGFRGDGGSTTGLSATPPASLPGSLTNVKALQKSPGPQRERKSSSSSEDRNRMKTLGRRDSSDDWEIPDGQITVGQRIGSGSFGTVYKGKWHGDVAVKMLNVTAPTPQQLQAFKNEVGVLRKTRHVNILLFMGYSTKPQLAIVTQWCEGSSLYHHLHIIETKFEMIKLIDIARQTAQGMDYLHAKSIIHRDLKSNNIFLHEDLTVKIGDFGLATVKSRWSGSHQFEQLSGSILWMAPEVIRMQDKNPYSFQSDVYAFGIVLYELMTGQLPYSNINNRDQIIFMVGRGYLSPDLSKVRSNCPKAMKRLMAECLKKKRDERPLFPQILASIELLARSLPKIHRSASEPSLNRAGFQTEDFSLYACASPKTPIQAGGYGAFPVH

BRAF (V600E) = BRAF (V600E) (Homo sapiens, UniProt P15056, V600E); assay: KD BRAF (V600E) (Table 1); assay type: binding
Chain of BRAF (V600E) (P15056 whole entry V600E): as the sequence (P15056 whole entry) above, with V600E counted along it

Structure (SMILES)	IC50 [1] [nM]	EC50 [2] [nM]	Kd (BRAF (wt)) [nM]	Kd (BRAF (V600E)) [nM]
CC(C)(C)OC(=O)N1CCC(CCn2cnc3ccc(Oc4c(F)ccc(NS(=O)(=O)N5CCCCC5)c4C#N)cc3c2=O)CC1 [Example 18, tert-butyl 4-[2-[6-[2-cyano-6-fluoro-3-(1-piperidylsulfonylamino)phenoxy]-4-oxo-quinazolin-3-yl]ethyl]piperidine-1-carboxylate]	158	1460	45.4	57.5
CN(CCCn1cnc2ccc(Oc3c(F)ccc(NS(=O)(=O)N4CCCC4)c3C#N)cc2c1=O)C(=O)OC(C)(C)C [Example 19, tert-butyl N-[3-[6-[2-cyano-6-fluoro-3-(pyrrolidin-1-ylsulfonylamino)phenoxy]-4-oxo-quinazolin-3-yl]propyl]-N-methyl-carbamate]	103	≥ 10000	0.93	2.31
CN(CCCn1cnc2ccc(Oc3c(F)ccc(NS(=O)(=O)C4CCCC4)c3C#N)cc2c1=O)C(=O)OC(C)(C)C [Example 20, tert-butyl N-[3-[6-[2-cyano-3-(cyclopentylsulfonylamino)-6-fluoro-phenoxy]-4-oxo-quinazolin-3-yl]propyl]-N-methyl-carbamate]	436	≥ 10000	3.34	9.2
CC(C)(C)OC(=O)N1CCC(CCn2cnc3ccc(Oc4c(F)ccc(NS(=O)(=O)C5CCC5)c4C#N)cc3c2=O)CC1 [Example 21, tert-butyl 4-[2-[6-[2-cyano-3-(cyclobutylsulfonylamino)-6-fluoro-phenoxy]-4-oxo-quinazolin-3-yl]ethyl]piperidine-1-carboxylate]	86.8	≥ 10000	11.7	67.2
CC(C)(C)OC(=O)N1CCCC(CCn2cnc3ccc(Oc4c(F)ccc(NS(=O)(=O)C5CCCC5)c4C#N)cc3c2=O)C1 (centres unmarked) [Example 22, tert-butyl 3-[2-[6-[2-cyano-3-(cyclopentylsulfonylamino)-6-fluoro-phenoxy]-4-oxo-quinazolin-3-yl]ethyl]piperidine-1-carboxylate]	155	≥ 10000	27.9	28.9
CC(C)(C)OC(=O)N1CCCC(CCn2cnc3ccc(Oc4c(F)ccc(NS(=O)(=O)N5CCCC5)c4C#N)cc3c2=O)C1 (centres unmarked) [Example 23, tert-butyl 3-[2-[6-[2-cyano-6-fluoro-3-(pyrrolidin-1-ylsulfonylamino)phenoxy]-4-oxo-quinazolin-3-yl]ethyl]piperidine-1-carboxylate]	49.7	2300	9.23	10.2
CC(=O)N(C)CCCn1cnc2ccc(Oc3c(F)ccc(NS(=O)(=O)C4CCCC4)c3C#N)cc2c1=O [Example 24, N-[3-[6-[2-cyano-3-(cyclopentylsulfonylamino)-6-fluoro-phenoxy]-4-oxo-quinazolin-3-yl]propyl]-N-methyl-acetamide]	50.4	≥ 10000	0.42	0.76
CC(C)(C)OC(=O)N1CCN(CCn2cnc3ccc(Oc4c(F)ccc(NS(=O)(=O)C5CCCC5)c4C#N)cc3c2=O)CC1 [Example 25, tert-butyl 4-[2-[6-[2-cyano-3-(cyclopentylsulfonylamino)-6-fluoro-phenoxy]-4-oxo-quinazolin-3-yl]ethyl]piperazine-1-carboxylate]	7.63	802	4.14	7.06
CC(=O)N(C)CCCn1cnc2ccc(Oc3c(F)ccc(NS(=O)(=O)N4CCCC4)c3C#N)cc2c1=O [Example 26, N-[3-[6-[2-cyano-6-fluoro-3-(pyrrolidin-1-ylsulfonylamino)phenoxy]-4-oxo-quinazolin-3-yl]propyl]-N-methyl-acetamide]	20.5	4260	0.32	0.55
CCN(C)S(=O)(=O)Nc1ccc(F)c(Oc2ccc3ncn(CCN4CCN(C(=O)OC(C)(C)C)CC4)c(=O)c3c2)c1C#N [Example 27, tert-butyl 4-[2-[6-[2-cyano-3-[[ethyl(methyl)sulfamoyl]amino]-6-fluoro-phenoxy]-4-oxo-quinazolin-3-yl]ethyl]piperazine-1-carboxylate]	6.99	6860	16.3	28.4
CN(Cc1ccc(CCCn2cnc3ccc(Oc4c(F)ccc(NS(=O)(=O)C5CCCC5)c4C#N)cc3c2=O)cc1)C(=O)OC(C)(C)C [Example 28, tert-butyl N-[[4-[3-[6-[2-cyano-3-(cyclopentylsulfonylamino)-6-fluoro-phenoxy]-4-oxo-quinazolin-3-yl]propyl]phenyl]methyl]-N-methyl-carbamate]	144	836	19.6	33.7
CCC(C)S(=O)(=O)Nc1ccc(F)c(Oc2ccc3ncn(CCN4CCN(C(=O)OC(C)(C)C)CC4)c(=O)c3c2)c1C#N (centres unmarked) [Example 29, tert-butyl 4-[2-[6-[2-cyano-6-fluoro-3-(sec-butylsulfonylamino)phenoxy]-4-oxo-quinazolin-3-yl]ethyl]piperazine-1-carboxylate]	18.1	3670	7.43	19.2
CN(Cc1ccc(CCCn2cnc3ccc(Oc4c(F)ccc(NS(=O)(=O)N5CCCC5)c4C#N)cc3c2=O)cc1)C(=O)OC(C)(C)C [Example 30, tert-butyl N-[[4-[3-[6-[2-cyano-6-fluoro-3-(pyrrolidin-1-ylsulfonylamino)phenoxy]-4-oxo-quinazolin-3-yl]propyl]phenyl]methyl]-N-methyl-carbamate]	52.4	455	6.15	12.1
CCN(C)S(=O)(=O)Nc1cccc(Nc2ccc3ncn(CC(=O)NCCOC)c(=O)c3c2)c1C#N [Example 31, 2-[6-[2-cyano-3-[[ethyl(methyl)sulfamoyl]amino]anilino]-4-oxo-quinazolin-3-yl]-N-(2-methoxyethyl)acetamide]	≥ 10000	≥ 10000	137	403
CCN(C)S(=O)(=O)Nc1cccc(Nc2ccc3ncn(CC4CCN(C(=O)OC(C)(C)C)CC4)c(=O)c3c2)c1C#N [Example 32, tert-butyl 4-[[6-[2-cyano-3-[[ethyl(methyl)sulfamoyl]amino]anilino]-4-oxo-quinazolin-3-yl]methyl]piperidine-1-carboxylate]	428	≥ 10000	210	813
CCN(C)S(=O)(=O)Nc1cccc(Nc2ccc3ncn(CC4CCN(C(C)=O)CC4)c(=O)c3c2)c1C#N [Example 33, 3-[(1-acetyl-4-piperidyl)methyl]-6-[2-cyano-3-[[ethyl(methyl)sulfamoyl]amino]anilino]-4-oxo-quinazoline]	576	≥ 10000	45.6	92.9
CCN(C)S(=O)(=O)Nc1cccc(Nc2ccc3ncn(CCOCCOCCNC(=O)OC(C)(C)C)c(=O)c3c2)c1C#N [Example 34, tert-butyl N-[2-[2-[2-[6-[2-cyano-3-[[ethyl(methyl)sulfamoyl]amino]anilino]-4-oxo-quinazolin-3-yl]ethoxy]ethoxy]ethyl]carbamate]	287	≥ 10000	91.9	247
